Data published in PubChem BioAssay (NCI).
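How tested: cells in 96-well plates exposed to compound for 48 hours at five concentrations. TGI denotes the concentration required for complete inhibition of growth.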

Columns and labels:
Assay in all cases: NCI tumour cell line growth inhibition, 48 h
NCI-H226 lung = tested on: NCI-H226 lung
SN12C renal = tested on: SN12C renal
UACC-257 melanoma = tested on: UACC-257 melanoma
MDA-MB-435 = tested on: MDA-MB-435
BT-549 breast = tested on: BT-549 breast
NCI/ADR-RES ovarian = tested on: NCI/ADR-RES ovarian
HL-60(TB) leukemia = tested on: HL-60(TB) leukemia
DU-145 prostate = tested on: DU-145 prostate
NCI-H522 lung = tested on: NCI-H522 lung
HOP-92 NSCLC = tested on: HOP-92 NSCLC
NCI-H23 lung = tested on: NCI-H23 lung
SK-MEL-2 melanoma = tested on: SK-MEL-2 melanoma
RPMI-8226 leukemia = tested on: RPMI-8226 leukemia
HCT-15 colon = tested on: HCT-15 colon
SF-539 CNS = tested on: SF-539 CNS
SNB-75 CNS = tested on: SNB-75 CNS
NCI-H460 lung = tested on: NCI-H460 lung

| Compound | TGI (NCI-H226 lung) [µM] | TGI (SN12C renal) [µM] | TGI (UACC-257 melanoma) [µM] | TGI (MDA-MB-435) [µM] | TGI (BT-549 breast) [µM] | TGI (NCI/ADR-RES ovarian) [µM] | TGI (HL-60(TB) leukemia) [µM] | TGI (DU-145 prostate) [µM] | TGI (NCI-H522 lung) [µM] | TGI (HOP-92 NSCLC) [µM] | TGI (NCI-H23 lung) [µM] | TGI (SK-MEL-2 melanoma) [µM] | TGI (RPMI-8226 leukemia) [µM] | TGI (HCT-15 colon) [µM] | TGI (SF-539 CNS) [µM] | TGI (SNB-75 CNS) [µM] | TGI (NCI-H460 lung) [µM] |
| --- | --- | --- | --- | --- | --- | --- | --- | --- | --- | --- | --- | --- | --- | --- | --- | --- | --- |
| CC(C)CC1c2[nH]c3ccccc3c2C[C@H]2C(=O)NC(CCC(=O)OC(C)(C)C)C(=O)N12 (stereo partly specified) | > 100 | 70.8 | 66 | 97.4 | > 100 | > 100 | 55.2 | > 100 | 88.1 | 78.1 | > 100 | 43.8 | 67.2 | > 100 | – | – | – |
| COc1ccc(OC)c2nc3c(C(=O)NCCN(C)C)cccc3nc12 | 27.5 | > 36.1 | 15.3 | 17.5 | 33 | > 61.1 | 16.5 | > 100 | 13.4 | 50.2 | 25.5 | 25.9 | > 24.2 | > 51.5 | 20 | 32.4 | 21.5 |
| CC(C)/C=N\n1c(N)c(C#N)c(C#N)c1C(C)C | 64.6 | > 100 | 50.3 | 95.1 | > 100 | 66.3 | > 100 | > 100 | > 100 | 38.3 | 75.4 | 58 | 75.2 | > 100 | 52.5 | 40.4 | – |
| COC(=N)C12C(N)=NC(OC)(OC)C1(C#N)C21C(=O)N(c2ccccc2)N=C1C (stereo unspecified) | > 100 | > 100 | > 100 | > 100 | > 100 | > 100 | > 100 | > 100 | > 100 | > 100 | > 100 | > 100 | > 100 | > 100 | > 100 | > 100 | > 100 |
| C=C1C(=O)C23CC1C[C@H](OC(C)=O)C2C1(C)C(OC(C)=O)C[C@H](O)C(C)(C)[C@H]1C(O)[C@@H]3OC(C)=O (stereo partly specified) | 45 | 20.7 | 24.5 | 20.6 | 13.5 | > 100 | 6.11 | 33.2 | 3.34 | 24.8 | 26.8 | 29.7 | 16.4 | 25.7 | 7.54 | 36.3 | > 60 |
| CCCCc1c2c(nc3c1CCC/C3=C\c1ccccc1)C(=O)C(CN(C)C)CC2 (stereo unspecified) | 51.6 | 43.1 | 33.7 | 37.2 | 19.8 | 91.7 | 18.2 | 29.1 | 30.1 | 33.5 | 31.8 | 39.4 | 31.8 | 20.7 | 36.5 | 27 | 34.5 |
| CCOC(=O)c1nc2ccc(C(F)(F)F)cc2nc1Oc1ccc(F)cc1 | > 100 | – | > 100 | > 100 | > 100 | > 100 | > 100 | > 100 | – | > 100 | > 100 | > 100 | > 100 | > 100 | > 100 | > 100 | > 100 |
| CC1(C)OCC(C2OC(N3O[C@H](CI)C[C@@H]3c3ccccc3)C3OC(C)(C)OC23)O1 (stereo partly specified) | – | > 100 | > 100 | > 100 | > 100 | > 100 | > 100 | > 100 | > 100 | > 100 | > 100 | > 100 | > 100 | > 100 | > 100 | > 100 | > 100 |
| NC1=NC(OCC2(CO)CCC2)C=C(NCC2(CO)CCC2)N1 (stereo unspecified) | > 100 | > 100 | > 100 | > 100 | > 100 | > 100 | > 100 | > 100 | > 100 | > 100 | > 100 | > 100 | > 100 | > 100 | – | > 100 | > 100 |
| C[Si](C)(C)OC1c2[nH]c3ccccc3c2CN2C(=O)CCC12 (stereo unspecified) | > 100 | > 100 | > 100 | > 100 | > 100 | > 100 | > 100 | > 100 | > 100 | > 100 | – | > 100 | > 100 | > 100 | > 100 | > 100 | > 100 |
| C/C=C(/C)C(=O)O[C@H]1C(C)=C[C@]23C(=O)[C@@H](C=C(COC(C)=O)[C@@H](O)[C@]12O)[C@H]1[C@@H](C[C@H]3C)[C@@]1(C)OC(=O)/C(C)=C\C | 7.52 | 5.34 | 10.4 | 6.6 | 5.73 | 6.82 | 5.67 | 6.21 | 6.07 | 6.34 | 5.19 | 6.01 | – | 7.17 | 5.88 | 4.53 | 4.09 |
| CCCCCCCCCCCCCCCCP(=O)(O)OP(=O)(O)OCC1OC(n2cnc3c(N)ncnc32)C(O)C1O (stereo unspecified) | 39.6 | 59.5 | 60 | 96.7 | > 100 | 98.6 | > 100 | > 100 | 41.7 | 42 | 68.2 | > 100 | – | 59.4 | 43.5 | 45.3 | 58.4 |
| CC1=C(OC2OC(CO)C(O)C(O)C2O)C(=O)C[C@H]2C1=CC[C@@H]1[C@@]2(C)C(=O)C[C@]2(C)[C@@H]([C@@](C)(O)C(=O)CCC(C)(C)O)[C@H](O)C[C@@]12C (stereo partly specified) | > 100 | > 100 | > 100 | > 100 | > 100 | > 100 | > 100 | > 100 | > 100 | > 100 | > 100 | > 100 | – | > 100 | > 100 | > 100 | > 100 |
| O=C1CCC2SC1CCC2=O | > 100 | > 100 | > 100 | > 100 | > 100 | > 100 | > 100 | > 100 | > 100 | > 100 | > 100 | > 100 | – | > 100 | > 100 | > 100 | > 100 |
| CCOC(=O)c1ccc(C(=O)/C(C#N)=C2\CCCN2)[nH]1 | > 100 | > 100 | > 100 | > 100 | > 100 | > 100 | > 100 | > 100 | – | > 100 | > 100 | > 100 | > 100 | > 100 | > 100 | > 100 | > 100 |
| CCOC(=O)c1c(NC(=O)Nc2ccccc2)c(C(N)=O)c2n1CCCCC2 | > 100 | – | > 100 | > 100 | > 100 | > 100 | > 100 | > 100 | – | > 100 | > 100 | > 100 | > 100 | > 100 | > 100 | > 100 | > 100 |
| CCCNC(=S)/N=C\c1c(O)c2ccccc2oc1=O | > 100 | > 100 | > 100 | > 100 | > 100 | > 100 | > 100 | > 100 | > 100 | > 100 | > 100 | > 100 | – | > 100 | > 100 | > 100 | > 100 |
| Cc1sc2nc3n(c(=O)c2c1C)N=C(c1ccc(Cl)cc1)CS3 | > 100 | > 100 | > 100 | > 100 | > 100 | > 100 | > 100 | > 100 | > 100 | > 100 | > 100 | – | > 100 | > 100 | > 100 | > 100 | > 100 |
| CN(C)CCNc1ccc2c(=O)n(CCN(C)C)c(=O)n3c4ccc(N)cc4c(=O)c1c23 | 0.573 | 0.306 | 2.51 | 0.273 | 1.87 | 2.28 | 0.278 | 2.08 | 0.0832 | 0.87 | 0.215 | 0.496 | – | 1.08 | 0.482 | 0.442 | 0.56 |
| CCOC(=O)CCC(NC(=O)c1ccc(Nc2nc3cc(C(F)(F)F)ccc3nc2-c2ccccc2)cc1)C(=O)OCC (stereo unspecified) | > 100 | > 100 | > 100 | > 100 | > 100 | > 100 | > 100 | > 100 | – | > 100 | > 100 | > 100 | > 100 | > 100 | > 100 | > 100 | > 100 |
| CCCCCc1c2nc(c(CCCCC)c3ccc([nH]3)c(CCCCC)c3ccc([nH]3)c(CCCCC)c3nc1C=C3)C=C2 | – | > 100 | > 100 | > 100 | > 100 | > 100 | > 100 | > 100 | > 100 | > 100 | > 100 | > 100 | > 100 | > 100 | > 100 | > 100 | > 100 |
